Source: patent US20220349825A1, “METHOD AND DEVICE FOR MEASURING CELL CONTRACTILITY” (THE ROYAL INSTITUTION FOR THE ADVANCEMENT OF …, priority 2021, published 2022)

System: NIH-3T3 fibroblast cells
Assay: time-dependent coverage-based (PaCS) measurement of cellular forces of fibroblasts on square patterns on 12 kPa PDMS, compared with TFM
Assay type: cell-based, mouse
Settings: 2 μM Cytochalasin D at end of 18 hours measurement; square patterns ~2400 μm^2; 12 kPa PDMS substrate
Protocol: The ability of the coverage-based technique to resolve time-dependent work was further tested. Fibroblast cellular forces on square patterns (˜2400 μm^2) on PDMS substrates (12 kPa) for 18 hours were measured; to further test the sensitivity of this technique the cellular forces was inhibited by depolymerizing actin using Cytochalasin D (Cyto D) in the last few hours of measurement. Using time-dependent coverage-based technique, cellular forces with time was measured when compared to TFM measurements, even after the Cyto D treatment, as presented in FIGS. 9c and 9d. […] Also the low strain energy values of ˜0.1 pJ indicate minimum resolution of the measurement on 12 kPa PDMS substrate. […]
After 16-18 hours of cell seeding, cells were stained with cell tracker green CMFDA (Thermofisher) to detect cell boundaries, and the plates were transferred to a lab-built heated stage perfused with 5% CO2 and mounted on a confocal microscope (Leica TCS SP8 with a 10×0.4 NA objective). With this setup, cells were imaged with transmission and fluorescence microscopy for extended periods, while maintaining a controlled culture environment
In PaCS, cells are confined on adhesive micropatterns of known area on linearly elastic silicone substrates. […] First, the deformed and undeformed pattern area are measured by thresholding the fluorescent pattern images. […]

C=C1[C@@H](C)[C@H]2[C@H](Cc3ccccc3)NC(=O)[C@]23[C@H](OC(C)=O)/C=C/[C@@](C)(O)C(=O)[C@@H](C)C/C=C/[C@H]3[C@@H]1O [Cytochalasin D]
cellular force (contractility) after drug treatment: decreased cellular force
pattern area after drug treatment: increased pattern area
